Measurements published in patent US11000033B2, “Ketone or oxime compound, and herbicide” (NISSAN CHEMICAL CORPORATION, priority 2014, dated 2021).

Legend:
Type in all cases: in vivo
[1] = system: Apera spica-venti; experiment: Test Example 5: herbicidal effect by foliage application, plastic box (symbol L); details: 320 g/ha, 3 weeks after application
Procedure, shortened: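 Visual herbicidal score, taken three weeks post-application, of seedlings sprayed on the foliage with water-diluted emulsion at a predetermined amount; plants were 14 days old, greenhouse-raised at 25° C. to 30° C.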

[2] = system: Echinochloa crus-galli var. crus-galli; experiment: Test Example 3: herbicidal effect by foliage application, Wagner pot (symbol H); details: application herbicide amount 320 g/ha; for H (Echinochloa crus-galli var. crus-galli) herbicidal effect grade: Table 24
Procedure, shortened: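 Steps: fill pot with alluvial soil; add water to 0.1–0.5 cm depth; sow weed and rice seed; grow 14 days at 25–30 °C; spray diluted emulsion over the leaves; rate effect after 3 weeks.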

[3] = system: corn; experiment: Test Example 5: effect on crop by foliage application, plastic box (symbol c); details: 320 g/ha, 3 weeks after application
Procedure, shortened: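 In a plastic box 7 cm deep filled with sterilized diluvial soil, seeds of crops and weeds such as Digitaria ciliaris, Avena fatua and Amaranthus retroflexus are sown in spots and covered with about 1.5 cm of soil before greenhouse growth at 25–30° C.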

[4] = system: Galium spurium; experiment: Test Example 4: herbicidal effect by soil treatment (symbol Q); details: for Q (Galium spurium) herbicidal effect grade / Herbicidal effect grade, Q: Galium spurium: application herbicide amount 320 g/ha; for Q: Galium spurium, herbicidal effect grade: 320 g/ha
Procedure, shortened: (§1)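 Seeds were sown in sterilized diluvial soil, covered with about 1.5 cm of soil, and the soil surface was sprayed with a water-diluted emulsion of the compound at a predetermined rate. Plants grew in a greenhouse at 25° C. to 30° C.; effects were scored visually 3 weeks after application.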

[5] = system: Chenopodium album; experiment: Test Example 4: herbicidal effect by soil treatment (symbol O); details: for O (Chenopodium album) herbicidal effect grade / Herbicidal effect grade, O: Chenopodium album: application herbicide amount 320 g/ha; for O: Chenopodium album, herbicidal effect grade: 320 g/ha
Procedure, shortened: as §1

[6] = system: Digitaria ciliaris; experiment: Test Example 4: herbicidal effect by soil treatment (symbol F); details: for F (Digitaria ciliaris) herbicidal effect grade / Herbicidal effect grade, F: Digitaria ciliaris: application herbicide amount 320 g/ha; for F: Digitaria ciliaris, herbicidal effect grade: 320 g/ha
Procedure, shortened: as §1

Row | Compound | L: Apera spica-venti, herbicidal effect grade [1] | herbicidal effect on H (Echinochloa crus-galli var. crus-galli), grade 0-5 [2] | c: corn, effect on crop grade [3] | Q (Galium spurium) herbicidal effect grade [4] | F (Digitaria ciliaris) herbicidal effect grade [6] | also measured
1 | CON=C(CC1CC(O)=C(c2c(C)cc(C)cc2C)C1=O)c1ccccc1 (stereo not drawn) [1-047] | 1 (Herbicidal ratio of 5% or higher and lower than 20%) | 1 (Herbicidal ratio of 5% or higher and lower than 20%) | 0 (Herbicidal ratio of 5% or lower (almost no effect)) | 0 (Herbicidal ratio of 5% or lower (almost no effect)) | 3 (Herbicidal ratio of 40% or higher and lower than 70%) | O (Chenopodium album) herbicidal effect grade [5]: 0 (Herbicidal ratio of 5% or lower (almost no effect))
2 | CON=C(CC1CC1)CC1CC(O)=C(c2c(C)cc(C)cc2C)C1=O (stereo not drawn) [1-070] | 4 (Herbicidal ratio of 70% or higher and lower than 90%) | 5 (Herbicidal ratio of 90% or more (almost completely withered)) | 4 (Herbicidal ratio of 70% or higher and lower than 90%) | 0 (Herbicidal ratio of 5% or lower (almost no effect)) | 4 (Herbicidal ratio of 70% or higher and lower than 90%) | O (Chenopodium album) herbicidal effect grade [5]: 0 (Herbicidal ratio of 5% or lower (almost no effect))
3 | CC#Cc1cc(C)c(C2=C(OC(=O)COc3ccccc3)CC(CC(=NOC)C(C)C)C2=O)c(C)c1 (stereo not drawn) [9-003] | 5 (Herbicidal ratio of 90% or more (almost completely withered)) | – | 5 (Herbicidal ratio of 90% or more (almost completely withered)) | – | – | H (Echinochloa crus-galli var. crus-galli) herbicidal effect grade [2]: 5 (Herbicidal ratio of 90% or more (almost completely withered)); Herbicidal effect grade, Q: Galium spurium [4]: 0 (Herbicidal ratio of 5% or lower (almost no effect)); Herbicidal effect grade, O: Chenopodium album [5]: 0 (Herbicidal ratio of 5% or lower (almost no effect)); Herbicidal effect grade, F: Digitaria ciliaris [6]: 5 (Herbicidal ratio of 90% or more (almost completely withered))
4 | COCC(=O)OC1=C(c2c(C)cc(C)cc2C)C(=O)C(CC(C)=NOC)C1 (stereo not drawn) [1-093] | – | 5 (Herbicidal ratio of 90% or more (almost completely withered)) | – | – | – | L: Apera spica-venti, herbicidal effect (criteria 0-5) [1]: 5 (Herbicidal ratio of 90% or more (almost completely withered)); c: corn, effect on crop (criteria 0-5) [3]: 5 (Herbicidal ratio of 90% or more (almost completely withered)); Q: Galium spurium, herbicidal effect grade [4]: 0 (Herbicidal ratio of 5% or lower (almost no effect)); O: Chenopodium album, herbicidal effect grade [5]: 0 (Herbicidal ratio of 5% or lower (almost no effect)); F: Digitaria ciliaris, herbicidal effect grade [6]: 5 (Herbicidal ratio of 90% or more (almost completely withered))
5 | CC#CC(=O)OC1=C(c2c(C)cc(C)cc2C)C(=O)C(CC(C)=NOC)C1 (stereo not drawn) [1-095] | – | 5 (Herbicidal ratio of 90% or more (almost completely withered)) | – | – | – | L: Apera spica-venti, herbicidal effect (criteria 0-5) [1]: 5 (Herbicidal ratio of 90% or more (almost completely withered)); c: corn, effect on crop (criteria 0-5) [3]: 5 (Herbicidal ratio of 90% or more (almost completely withered)); Q: Galium spurium, herbicidal effect grade [4]: 0 (Herbicidal ratio of 5% or lower (almost no effect)); O: Chenopodium album, herbicidal effect grade [5]: 0 (Herbicidal ratio of 5% or lower (almost no effect)); F: Digitaria ciliaris, herbicidal effect grade [6]: 5 (Herbicidal ratio of 90% or more (almost completely withered))
6 | CC(=O)CC1CC(O)=C(c2c(C)cc(-c3ncccn3)cc2C)C1=O (stereo not drawn) [7-017] | – | 5 (Herbicidal ratio of 90% or more (almost completely withered)) | – | – | – | L: Apera spica-venti, herbicidal effect (criteria of Test Example 1) [1]: 3 (Herbicidal ratio of 40% or higher and lower than 70%); c: corn, effect on crop (criteria of Test Example 1) [3]: 0 (Herbicidal ratio of 5% or lower (almost no effect)); Herbicidal effect grade, Q: Galium spurium [4]: 0 (Herbicidal ratio of 5% or lower (almost no effect)); Herbicidal effect grade, O: Chenopodium album [5]: 0 (Herbicidal ratio of 5% or lower (almost no effect)); Herbicidal effect grade, F: Digitaria ciliaris [6]: 4 (Herbicidal ratio of 70% or higher and lower than 90%)
7 | CON=C(C)CC1CC(OC(=O)C(C)(C)OC(C)=O)=C(c2c(C)cc(C)cc2C)C1=O (stereo not drawn) [1-034] | 5 (Herbicidal ratio of 90% or more (almost completely withered)) | 5 (Herbicidal ratio of 90% or more (almost completely withered)) | 4 (Herbicidal ratio of 70% or higher and lower than 90%) | 4 (Herbicidal ratio of 70% or higher and lower than 90%) | 5 (Herbicidal ratio of 90% or more (almost completely withered)) | O (Chenopodium album) herbicidal effect grade [5]: 5 (Herbicidal ratio of 90% or more (almost completely withered))
8 | CON=C(C)CC1CC(OC(=O)COc2cccc(C#N)c2)=C(c2c(C)cc(C)cc2C)C1=O (stereo not drawn) [1-074] | – | 5 (Herbicidal ratio of 90% or more (almost completely withered)) | – | 0 (Herbicidal ratio of 5% or lower (almost no effect)) | 5 (Herbicidal ratio of 90% or more (almost completely withered)) | L: Apera spica-venti, herbicidal effect (criteria 0-5) [1]: 5 (Herbicidal ratio of 90% or more (almost completely withered)); c: corn, effect on crop (criteria 0-5) [3]: 5 (Herbicidal ratio of 90% or more (almost completely withered)); O (Chenopodium album) herbicidal effect grade [5]: 0 (Herbicidal ratio of 5% or lower (almost no effect))
9 | CC(CC1CC(O)=C(c2c(C)cc(Br)cc2C)C1=O)=NOCC(=O)N(C)C (mixture of isomers) [9-029] | 4 (Herbicidal ratio of 70% or higher and lower than 90%) | – | 4 (Herbicidal ratio of 70% or higher and lower than 90%) | – | – | H (Echinochloa crus-galli var. crus-galli) herbicidal effect grade [2]: 4 (Herbicidal ratio of 70% or higher and lower than 90%); Herbicidal effect grade, Q: Galium spurium [4]: 0 (Herbicidal ratio of 5% or lower (almost no effect)); Herbicidal effect grade, O: Chenopodium album [5]: 0 (Herbicidal ratio of 5% or lower (almost no effect)); Herbicidal effect grade, F: Digitaria ciliaris [6]: 3 (Herbicidal ratio of 40% or higher and lower than 70%)
10 | CON=C(CC1CC(O)=C(c2c(C)cc(C)cc2C)C1=O)C1CC1 (stereo not drawn) [1-046] | 5 (Herbicidal ratio of 90% or more (almost completely withered)) | 5 (Herbicidal ratio of 90% or more (almost completely withered)) | 5 (Herbicidal ratio of 90% or more (almost completely withered)) | 0 (Herbicidal ratio of 5% or lower (almost no effect)) | 5 (Herbicidal ratio of 90% or more (almost completely withered)) | –
11 | CON=C(C)CC1CC(OC(=O)COc2ccccc2OC)=C(c2c(C)cc(C)cc2C)C1=O (stereo not drawn) [1-067] | 5 (Herbicidal ratio of 90% or more (almost completely withered)) | 5 (Herbicidal ratio of 90% or more (almost completely withered)) | 5 (Herbicidal ratio of 90% or more (almost completely withered)) | 0 (Herbicidal ratio of 5% or lower (almost no effect)) | 5 (Herbicidal ratio of 90% or more (almost completely withered)) | –
12 | COCC(CC1CC(O)=C(c2c(C)cc(C)cc2C)C1=O)=NOC (stereo not drawn) [1-040] | 5 (Herbicidal ratio of 90% or more (almost completely withered)) | 5 (Herbicidal ratio of 90% or more (almost completely withered)) | 3 (Herbicidal ratio of 40% or higher and lower than 70%) | 0 (Herbicidal ratio of 5% or lower (almost no effect)) | 4 (Herbicidal ratio of 70% or higher and lower than 90%) | –
13 | CON=C(C)CC1CC(OC(=O)COc2ccccc2[N+](=O)[O-])=C(c2c(C)cc(C)cc2C)C1=O (stereo not drawn) [1-071] | 5 (Herbicidal ratio of 90% or more (almost completely withered)) | 5 (Herbicidal ratio of 90% or more (almost completely withered)) | 5 (Herbicidal ratio of 90% or more (almost completely withered)) | 0 (Herbicidal ratio of 5% or lower (almost no effect)) | 5 (Herbicidal ratio of 90% or more (almost completely withered)) | –
14 | CON=C(C)CC1CC(OC(=O)C(C)Oc2ccc(Oc3cnc4cc(Cl)ccc4n3)cc2)=C(c2c(C)cc(C)cc2C)C1=O (stereo not drawn) [1-087] | – | 5 (Herbicidal ratio of 90% or more (almost completely withered)) | – | – | – | L: Apera spica-venti, herbicidal effect (criteria 0-5) [1]: 5 (Herbicidal ratio of 90% or more (almost completely withered)); c: corn, effect on crop (criteria 0-5) [3]: 5 (Herbicidal ratio of 90% or more (almost completely withered)); Q: Galium spurium, herbicidal effect grade [4]: 0 (Herbicidal ratio of 5% or lower (almost no effect)); F: Digitaria ciliaris, herbicidal effect grade [6]: 5 (Herbicidal ratio of 90% or more (almost completely withered))
15 | CCCCCCCCC(=O)OC1=C(c2c(C)cc(C)cc2C)C(=O)C(CC(C)=NOC)C1 (stereo not drawn) [1-033] | 5 (Herbicidal ratio of 90% or more (almost completely withered)) | 5 (Herbicidal ratio of 90% or more (almost completely withered)) | 4 (Herbicidal ratio of 70% or higher and lower than 90%) | 3 (Herbicidal ratio of 40% or higher and lower than 70%) | 5 (Herbicidal ratio of 90% or more (almost completely withered)) | –
